Data: BindingDB's records for doi:10.1016/s0960-894x(01)00577-7 (University of Toledo, 2001)

Test: Inhibitory concentration against polymerization in A17 double mutant HIV-1 RT using a template primer of poly rC/dG12-18 and [3H]dGTP

Compared with `O=C(OC1COc2cc(O)cc(O)c2C1)c1cccc(O)c1O` (stereo not drawn) [2,3-Dihydroxy-benzoic acid 5,7-dihydroxy-chroman-3-yl ester], `O=C(OC1COc2cc(O)ccc2C1)c1ccc(O)c(O)c1O` (stereo not drawn) [2,3,4-Trihydroxy-benzoic acid 7-hydroxy-chroman-3-yl ester] is lower in IC50: greater than 100 µM for the first, 30.8 µM for the second.

Work on `O=C(OC1COc2ccccc2C1)c1ccc(O)c(O)c1O` (stereo not drawn) [2,3,4-Trihydroxy-benzoic acid chroman-3-yl ester] yielded an IC50 greater than 100 µM.
